System: APTKA orthotopic tumours
Experiment: Orthotopic APTKA organoid rectal cancer model with local fractionated radiotherapy (5×2 Gy)
Assay type: in vivo, C57BL/6 mice
From the text: (A and B) Schematic representation of the orthotopic transplantation of APTKA & APTK mouse organoids into C57BL/6 mice followed by local fractionated radiotherapy (5×2 Gy) of established tumours and end point colonoscopy 21 days after the last irradiation. (C) Heat map analysis of RNA sequencing data of APTKA (n=4) and APTK (n=5) orthotopic tumours. (D) GSEA of CAF signature using RNA sequencing data of APTKA and APTK orthotopic tumours. Significant NES≤−1; FDR q-value<0.05. (E) H&E stained sections of APTK and APTKA untreated and irradiated orthotopic tumours 21 days after last irradiation. Scale bars=500 μm. (F and G) Overall tumour (mm3) and invasive area (%) of untreated (n=5) and irradiated (n=6) APTK orthotopic tumours. Data are mean±SD. *** p<0.001 and **** p<0.0001 by t-test. (H and I) Overall tumour (mm3) and invasive area (%) of untreated (n=5) and irradiated (n=5) APTKA orthotopic tumours. ** p<0.01 by t-test. Data are mean±SD. (J) Frequency of mice with liver metastasis in untreated or irradiated APTKA orthotopic tumours (n=5 mice per group). (K) H&E staining of untreated and irradiated APTKA orthotopic tumours. Scale bars=300 μm. Representative images of αSMA (Green), Vimentin (Blue) and Collagen (Yellow) multiplex immunofluorescence of untreated and irradiated APTKA tumours. Scale bars=400 μm. Sirius red staining of APTKA orthotopic tumours upon radiotherapy. Scale bars=300 μm. (L) Percent of αSMA, Vim and Col1 triple positive cells in untreated (n=9) and irradiated (n=10) APTKA tumours. Data are mean±SD. ** p<0.01 by t-test. (M) Sirius red pixel positivity in untreated (n=7) and irradiated (n=6) APTKA tumours. Data are mean±SD. * p<0.05 by t-test. (N-P) Ex vivo irradiation (5×2Gy) of APTKA and APTK organoids: (N) relative fluorescent units of untreated and irradiated organoids, 6 h post last dose, using resazurin cell viability kit (n=4 independent wells per condition); (O) quantification of the number of fully grown untreated and irradiated organoids 4 days' post first reseeding (n=7 to 9 independent wells per condition); (P) subcutaneous tumour growth in C57BL/6 mice transplanted with untreated or irradiated organoids. Data are mean±SD. N=6 mice per group; p<0.05 by one-way ANOVA followed by Tukey's multiple comparisons test. Representative results from one experiment which has been independently repeated least 3 times.
(A) Schematic representation of the orthotopic transplantation of APTKA mouse organoids into C57BL/6 mice followed by 5×2 Gy radiotherapy of established tumours untreated or treated daily with anakinra (500 μg/day) for 21 days. (B and C) Overall tumour size (mm3) and % invasive area of 5×2Gy radiated APTKA orthotopic tumours 21 days after last irradiation without (n=5) or with (n=4) anakinra treatment (500 μg/day). Data are mean±SD; p<0.05 by t-test. (D) Frequency of mice with liver metastasis upon irradiation of APTKA orthotopic tumours without (n=5) or with (n=4) anakinra treatment (500 μg/day). (E and F) Sirius red staining of untreated (n=3) or anakinra treated (n=4) 5×2 Gy irradiated APTKA tumours. Scale bars=200 μm. Data are mean±SD. *** p<0.001 by t-test. (G, H) αSMA immunofluorescent staining and its quantification of irradiated APTKA orthotopic tumours without (n=5) or with (n=4) anakinra treatment (500 μg/day). Scale bars=200 μm. Data are mean±SD; p<0.05 by t-test. (I) Schematic representation of IL-1α overexpression in APTK organoids by CRISPRa/Cas9. (J) ELISA of IL-1α protein levels in conditioned media from APTK sgctrl and APTK sgIL-1α organoids (n=4 independent wells per group). Data are mean±SD. **** p<0.0001 by t-test. (K) Relative RNA expression of inflammatory genes in fibroblasts treated with conditioned media from APTK sgctrl and APTK sgIL-1α organoids for 24 h (n=5 independent wells per condition). Data are mean±SD. **** p<0.0001 by t-test. Representative results from one experiment which has been independently repeated 2 times. […]

[1] = anakinra 500 μg/day plus 5×2 Gy
[2] = anakinra 500 μg/day plus 5×2 Gy, 21 days after last irradiation

anakinra: Kineret®, an interleukin-1 receptor antagonist
APTKA tumour growth (anakinra 500 μg/day alone, no irradiation, data not shown): did not affect APTKA tumour growth significantly | metastasis formation (liver) [1]: blocked metastasis formation | number of αSMA+ cells [1]: decreased number of αSMA+cells | sirius red staining [1]: significant decrease in sirius red staining | invasion (% invasive area) [2]: marked reduction in tumour size and invasion | tumour size [2]: marked reduction in tumour size
